These results are taken from patent US20250223307A1, “MDM2/MDMX DOUBLE-TARGET INHIBITOR COMPOUND, PRODRUG, PHARMACEUTICAL COMPOSITION, AND PREPARATION METHOD THEREFOR AND USE THEREOF” (GLOBAL HEALTH DRUG DISCOVERY INSTITUTE, priority 2022, published 2025).

Some results are limits rather than exact numbers.

One test deals with MDM2 (Homo sapiens, UniProt Q00987). In words: HTRF test: inhibition of MDM2-p53 protein binding.
The test system of test [1] is Blood cancer cells RS4; 11. In words: CellTiter Glo test: growth inhibition of cells. The test is classed as cell-based. The conditions noted are these: Homo sapiens, 11 cells, 72 h, cell viability. The protocol:
Test of Candidate Compounds on Growth Inhibition of Cells Determined by CellTiter Glo
Blood cancer cells RS4; 11 were inoculated into the 96-well cell culture plate through Multidrop 3000 cells per well, with a volume of 100 μL. The final compound concentration ranged from 50 μM to 0.01 μM at 9 concentration gradients and the DMSO final concentration was 0.1%. The cells and compounds were co-incubated in a cell incubator at 37° C. for 72 h, a CellTiter-Glo Luminescent Cell Viability Assay reagent was added 100 μL/well, the cells and compound were uniformly mixed and incubated at room temperature for 10 min, and Envision reading was performed. A sample treated with 50 μM of a positive compound was taken as a positive control and a sample treated with 100 nL of DMSO was taken as a negative control.

The target in another test is T1, MDMX (Homo sapiens, UniProt O15151).
T1 sequence (O15151 2-134): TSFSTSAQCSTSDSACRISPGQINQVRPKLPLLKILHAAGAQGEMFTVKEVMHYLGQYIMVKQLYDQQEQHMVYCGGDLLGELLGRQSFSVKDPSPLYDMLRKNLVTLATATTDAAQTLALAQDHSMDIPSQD
The test is described as follows: HTRF test: inhibition of MDMX-p53 protein binding. Background: TR-FRET usually uses a lanthanide donor and a delayed reading to cut background.

MDM2, sequence (Q00987 2-138): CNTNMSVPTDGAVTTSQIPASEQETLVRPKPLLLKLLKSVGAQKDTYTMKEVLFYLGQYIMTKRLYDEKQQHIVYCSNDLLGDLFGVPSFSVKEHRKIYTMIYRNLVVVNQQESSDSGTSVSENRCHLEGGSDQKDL

As usually defined, the IC50 is the point on the concentration scale where inhibition reaches its midpoint. Turning to `N#Cc1ccc(C(CO)N2C(=O)N/C(=C\c3c[nH]c4c(F)c(Cl)ccc34)C2=O)cc1` (stereo not drawn) [Compound 85, (Z)-4-(1-(4-((6-chloro-7-fluoro-1H-indol-3-yl)methylene)-2,5-dioxoimidazolidin-1-yl)-2-hydroxyethyl)benzonitrile], the results for the IC50 (at MDM2; in test [1]; at MDMX) were less than 10 nM, no more than 1000 nM and less than 10 nM, respectively.
For the compound `Cc1c(Cl)ccc2c(/C=C3\NC(=O)N(C(C(=O)NCC45CC(O)(C4)C5)c4ccc(F)c(F)c4)C3=O)c[nH]c12` (stereo not drawn) [Compound 68, (Z)-2-(4-((6-chloro-7-methyl-1H-indol-3-yl)methylene)-2,5-dioxoimidazolidin-1-yl)-2-(3,4-difluorophenyl)-N-((3-hydroxylbicyclo[1.1.1]pentan-1-yl)methyl)acetamide], the IC50 was less than 10 nM at MDM2, no more than 1000 nM in test [1] and less than 10 nM at MDMX.
With `N#Cc1cc(F)c(CN2C(=O)N/C(=C\c3c[nH]c4c(F)c(Cl)ccc34)C2=O)cc1F` [Compound 36, 4-{[(4Z)-4-[(6-chloro-7-fluoro-1H-indol-3-yl)methylene]-2,5-dioxoimidazolidin-1-yl]methyl}-2,5-difluorobenzonitrile], the results for the IC50 (at MDM2; in test [1]; at MDMX) were less than 10 nM, no more than 1000 nM and 10 to 100 nM, respectively.
In the same order, the values of `Cc1c(Cl)ccc2c(/C=C3\NC(=O)N(C(C(=O)NCCO)c4ccc(C#N)cc4)C3=O)c[nH]c12` (stereo not drawn) [Compound 60, (Z)-2-(4-((6-chloro-7-methyl-1H-indol-3-yl)methylene)-2,5-dioxoimidazolidin-1-yl)-2-(4-cyanophenyl)-N-(2-hydroxyethyl)acetamide] are less than 10 nM, no more than 1000 nM and less than 10 nM.
On the same counts, the results for `Cc1c(Cl)ccc2c(/C=C3\NC(=O)N(Cc4ccc(C#N)cc4)C3=O)c[nH]c12` [Compound 19, (Z)-4-((4-((6-chloro-7-methyl-1H-indol-3-yl)methylene)-2,5-dioxoimidazolidin-1-yl)methyl)benzonitrile] are less than 10 nM, no more than 1000 nM and less than 10 nM.
On to `N#Cc1c(F)cc(CN2C(=O)N/C(=C\c3c[nH]c4c(F)c(Cl)ccc34)C2=O)cc1F` [Compound 35], for which the IC50 at MDM2 was 10 to 100 nM; in test [1], no more than 1000 nM; on MDMX it was 10 to 100 nM.
In the case of `O=C1N/C(=C\c2c[nH]c3c(F)c(Cl)ccc23)C(=O)N1Cc1cc(F)c(Cl)cc1F` [Compound 100, (Z)-3-(4-chloro-2,5-difluorobenzyl)-5-((6-chloro-7-fluoro-1H-indol-3-yl)methylene)imidazolidine-2,4-dione], the IC50 is less than 10 nM on MDM2, no more than 1000 nM in test [1] and 10 to 100 nM on MDMX.
In the case of `N#Cc1ccc(CN2C(=O)N/C(=C\c3c[nH]c4cc(Cl)ccc34)C2=O)cc1` [Compound 4, (Z)-4-((4-((6-chloro-1H-indol-3-yl)methylene)-2,5-dioxoimidazolidin-1-yl)methyl)benzonitrile], the figures for the IC50 (at MDM2; in test [1]; at MDMX) were 10 to 100 nM, no more than 1000 nM and 10 to 100 nM, respectively.
Turning to `Cc1c(Cl)ccc2c(/C=C3\NC(=O)N(C(C(=O)NC(CO)(CO)CO)c4ccc(F)c(F)c4)C3=O)c[nH]c12` (stereo not drawn) [Compound 30, (Z)-2-(4-((6-chloro-7-methyl-1H-indol-3-yl)methylene)-2,5-dioxoimidazolidin-1-yl)-2-(3,4-difluorophenyl)-N-(1,3-dyhydroxl-2-(hydroxymethyl)-2-propyl)acetamide], the IC50 at MDM2 is less than 10 nM; in test [1], no more than 1000 nM; on MDMX it was less than 10 nM.
With `O=C1N/C(=C\c2c[nH]c3c(OCF)c(Cl)ccc23)C(=O)N1Cc1ccc(Cl)cc1` [Compound 12, (Z)-5-((6-chloro-7-(fluoromethoxyl)-1H-indol-3-yl)methylene)-3-(4-chlorobenzyl)imidazolidine-2,4-dione], the IC50 on MDM2 was 10 to 100 nM; in test [1], greater than 10000 nM; on MDMX it was 10 to 100 nM.
Turning to `O=C1N/C(=C\c2c[nH]c3c(F)c(Cl)ccc23)C(=O)N1Cc1ccc(Cl)cc1` [Compound 15, (Z)-5-((6-chloro-7-fluoro-1H-indol-3-yl)methylene)-3-(4-chlorobenzyl)imidazolidine-2,4-dione], the IC50 at MDM2 was 10 to 100 nM; in test [1], no more than 1000 nM; at MDMX, 10 to 100 nM.
Consider `N#Cc1ccc(CN2C(=O)N/C(=C\c3c[nH]c4c(F)c(Cl)ccc34)C2=O)c(F)c1F` [Compound 34, 4-{[(4Z)-4-[(6-chloro-7-fluoro-1H-indol-3-yl)methylene]-2,5-dioxoimidazolidin-1-yl]methyl}-2,3-difluorobenzonitrile], for which the IC50 on MDM2 is less than 10 nM; in test [1], no more than 1000 nM; on MDMX, 10 to 100 nM.
As to `Cc1c(Cl)ccc2c(/C=C3\NC(=O)N(C(C(=O)NC45CC(O)(C4)C5)c4ccc(F)c(F)c4)C3=O)c[nH]c12` (stereo not drawn) [Compound 57, (Z)-2-(4-((6-chloro-7-methyl-1H-indol-3-yl)methylene)-2,5-dioxoimidazolidin-1-yl)-2-(3,4-difluorophenyl)-N-(3-hydroxylbicyclo[1.1.1]pentan-1-yl)acetamide], the IC50 at MDM2 was less than 10 nM; in test [1], no more than 1000 nM; on MDMX, less than 10 nM.
Consider `Cc1c(Cl)ccc2c(/C=C3\NC(=O)N(C(C(=O)NCCO)c4ccc(Cl)cc4)C3=O)c[nH]c12` (stereo not drawn) [Compound 48, (Z)-2-(4-((6-chloro-7-methyl-1H-indol-3-yl)methylene)-2,5-dioxoimidazolidin-1-yl)-2-(4-chlorophenyl)-N-(2-hydroxyethyl)acetamide], for which the IC50 is less than 10 nM at MDM2, no more than 1000 nM in test [1] and less than 10 nM on MDMX.
As to `O=C1N/C(=C\c2c[nH]c3c(F)c(Cl)ccc23)C(=O)N1Cc1ccc(Cl)c(F)c1F` [Compound 104, (Z)-3-(4-chloro-2,3-difluorobenzyl)-5-((6-chloro-7-fluoro-1H-indol-3-yl)methylene)imidazolidine-2,4-dione], the IC50 at MDM2 was 10 to 100 nM; in test [1], no more than 1000 nM; on MDMX it was 10 to 100 nM.
For `N#Cc1ccc(CN2C(=O)N/C(=C\c3c[nH]c4cc(Cl)ccc34)C2=O)cc1F` [Compound 20, (Z)-4-((4-((6-chloro-1H-indol-3-yl)methylene)-2,5-dioxoimidazolidin-1-yl)methyl)-2-fluorobenzonitrile], the results for the IC50 (at MDM2; in test [1]; at MDMX) were 10 to 100 nM, no more than 1000 nM and 10 to 100 nM, respectively.
As for `N#Cc1cccc(CN2C(=O)N/C(=C\c3c[nH]c4c(F)c(Cl)ccc34)C2=O)c1` [Compound 18, (Z)-3-((4-((6-chloro-7-fluoro-1H-indol-3-yl)methylene)-2,5-dioxoimidazolidin-1-yl)methyl)benzonitrile], the IC50 on MDM2 was 10 to 100 nM; in test [1], no more than 1000 nM; at MDMX, 10 to 100 nM.
Take `O=C1N/C(=C\c2c[nH]c3cc(Cl)ccc23)C(=O)N1[C@@H](CO)c1ccc(F)c(F)c1` [Compound 54, (R,Z)-5-((6-chloro-1H-indol-3-yl)methylene)-3-(1-(3,4-difluorophenyl)-2-hydroxyethyl)imidazolidine-2,4-dione]: the results for the IC50 (at MDM2; in test [1]; at MDMX) were 10 to 100 nM, no more than 1000 nM and 10 to 100 nM, respectively.
In the case of `O=C1N/C(=C\c2c[nH]c3c(F)c(Cl)ccc23)C(=O)N1C(CO)c1ccc(Cl)c(F)c1F` (stereo not drawn) [Compound 105, (Z)-3-(1-(4-chloro-2,3-difluorophenyl)-2-hydroxyethyl)-5-((6-chloro-7-fluoro-1H-indol-3-yl)methylene)imidazolidine-2,4-dione], the IC50 is 10 to 100 nM on MDM2, no more than 1000 nM in test [1] and 10 to 100 nM on MDMX.
Take `O=C(NCCO)C(c1ccc(Cl)cc1)N1C(=O)N/C(=C\c2c[nH]c3cc(Cl)ccc23)C1=O` (stereo not drawn) [Compound 62, (Z)-2-(4-((6-chloro-1H-indol-3-yl)methylene)-2,5-dioxoimidazolidin-1-yl)-2-(4-chlorophenyl)-N-(2-hydroxyethyl)acetamide]: the IC50 on MDM2 is less than 10 nM; in test [1], no more than 1000 nM; on MDMX, 10 to 100 nM.
As for `COc1c(Cl)ccc2c(/C=C3\NC(=O)N(Cc4ccc(F)c(F)c4)C3=O)c[nH]c12` [Compound 8, (Z)-5-((6-chloro-7-methoxyl-1H-indol-3-yl)methylene)-3-(3,4-difluorobenzyl)imidazolidine-2,4-dione], the figures for the IC50 (on MDM2; in test [1]; at MDMX) were 10 to 100 nM, 1000 to 10000 nM and 10 to 100 nM, respectively.
`N#Cc1ccc(C(C(=O)NCCO)N2C(=O)N/C(=C\c3cn(P(=O)(O)O)c4c(F)c(Cl)ccc34)C2=O)cc1F` (stereo not drawn) [Compound 56, (Z)-(6-chloro-3-((1-(1-(4-cyano-3-fluorophenyl)-2-((2-hydroxyethyl)amino)-2-oxyethyl)-2,5-dioxoimidazolidin-4-ylene)methyl)-7-fluoro-1H-indol-1-yl)phosphonic acid]: the IC50 on MDM2 was in the range of 10 to 100 nM; in test [1] it was 1000 to 10000 nM; on MDMX it was 10 to 100 nM.
With `Cc1c(Cl)ccc2c(/C=C3\NC(=O)N(C(CO)c4ccc(C#N)cc4)C3=O)c[nH]c12` (stereo not drawn) [Compound 88, (Z)-4-(1-(4-((6-chloro-7-methyl-1H-indol-3-yl)methylene)-2,5-dioxoimidazolidin-1-yl)-2-hydroxyethyl)benzonitrile], the values for the IC50 (at MDM2; in test [1]; at MDMX) were less than 10 nM, no more than 1000 nM and less than 10 nM, respectively.
